Patent publication US8735414B2 (priority 2009, dated 2014)
pIC50: −log10 of the molar value.

Tests used:
[1] = tested on: bicistronic HCV replicon (replicon RNA, GenBank Accession No. AJ242654); assay: HCV Replicon Assay; format: cell-based; conditions: Hepatitis C virus, 72 h, read-out: Replicon IC50

| Structure (SMILES) | pIC50 [1] | melting point |
| --- | --- | --- |
| CCc1cc(OC)c2c(C#N)c(-c3ccc(S(=O)(=O)N[C@@H](C)C(F)(F)F)cn3)n(C3CCC3)c2c1 [compound 858, 6-(3-cyano-1-cyclobutyl-6-ethyl-4-methoxy-1H-indol-2-yl)-N-[(2S)-1,1,1-trifluoropropan-2-yl]pyridine-3-sulfonamide] | 5.70 to 6.30 | 187 to 188 °C |
| N#Cc1c(-c2ccc(S(=O)(=O)NC(CF)CF)cn2)n(C2CC2)c2cc(C3CC3)ccc12 [compound 147, 6-(3-cyano-1,6-dicyclopropyl-1H-indol-2-yl)-N-(1,3-difluoropropan-2-yl)pyridine-3-sulfonamide] | > 6.30 | 226 to 228 °C |
| Cc1cc2c(cc1F)c(C#N)c(-c1ncc(S(=O)(=O)NC(CF)CF)cn1)n2C1CCC1 [compound 146, 2-(3-cyano-1-cyclobutyl-5-fluoro-6-methyl-1H-indol-2-yl)-N-(1,3-difluoropropan-2-yl)pyrimidine-5-sulfonamide] | > 6.30 | 243 to 249 °C |
| Cc1cc2c(cc1F)c(C#N)c(-c1ccc(S(=O)(=O)NC(C)(C)C(F)(F)F)cn1)n2C1CCCCC1 [compound 705, 6-(3-cyano-1-cyclohexyl-5-fluoro-6-methyl-1H-indol-2-yl)-N-(1,1,1-trifluoro-2-methylpropan-2-yl)pyridine-3-sulfonamide] | > 6.30 | 248 to 254 °C |
| CC(C)NS(=O)(=O)c1cnc(-c2c(C#N)c3ccc(OC(F)F)cc3n2C(C)C)nc1 [compound 171, 2-[3-cyano-6-(difluoromethoxy)-1-(propan-2-yl)-1H-indol-2-yl]-N-(propan-2-yl)pyrimidine-5-sulfonamide] | > 6.30 | 193 to 196 °C |
| CCc1cc2c(cc1F)c(C#N)c(-c1ccc(S(=O)(=O)N[C@@H](C)C(F)(F)F)cn1)n2-c1ccc(Cl)cn1 [compound 966, 6-[1-(5-chloropyridin-2-yl)-3-cyano-6-ethyl-5-fluoro-1H-indol-2-yl]-N-[(2S)-1,1,1-trifluoropropan-2-yl]pyridine-3-sulfonamide] | > 6.30 | 252 to 259 °C |
| CCc1cc2c(cc1F)c(C#N)c(-c1ccc(S(=O)(=O)N[C@@H](C)C(F)(F)F)cn1)n2C1CCCC1 [compound 633, 6-(3-cyano-1-cyclopentyl-6-ethyl-5-fluoro-1H-indol-2-yl)-N-[(2S)-1,1,1-trifluoropropan-2-yl]pyridine-3-sulfonamide] | > 6.30 | 201 to 202 °C |
| CC(C)NS(=O)(=O)c1cnc(-c2c(C#N)c3ccc(F)cc3n2C2CCCC2)nc1 [compound 141, 2-(3-cyano-1-cyclopentyl-6-fluoro-1H-indol-2-yl)-N-(propan-2-yl)pyrimidine-5-sulfonamide] | 5.70 to 6.30 | 216 to 217 °C |
| C[C@@H](C1CC1)n1c(-c2ccc(NS(=O)(=O)C(C)(C)C)nc2)c(C(N)=O)c2cc(F)c(OC(F)F)cc21 [compound 1081, 2-{6-[(tert-butylsulfonyl)amino]pyridin-3-yl}-1-[(1S)-1-cyclopropylethyl]-6-(difluoromethoxy)-5-fluoro-1H-indole-3-carboxamide] | > 6.30 | 239 to 241 °C |
| NC(=O)c1c(-c2ccc(S(=O)(=O)NC3(C(F)(F)F)CC3)cn2)n(C2CCC2)c2cc(OC(F)F)c(F)cc12 [compound 809, 1-cyclobutyl-6-(difluoromethoxy)-5-fluoro-2-(5-{[1-(trifluoromethyl)cyclopropyl]sulfamoyl}pyridin-2-yl)-1H-indole-3-carboxamide] | > 6.30 | 197 to 200 °C |
| Cc1cc2c(cc1Cl)c(C(N)=O)c(-c1ncc(S(=O)(=O)N[C@@H](C)C(F)(F)F)cn1)n2C1CCC1 [compound 733, 5-chloro-1-cyclobutyl-6-methyl-2-(5-{[(2S)-1,1,1-trifluoropropan-2-yl]sulfamoyl}pyrimidin-2-yl)-1H-indole-3-carboxamide] | > 6.30 | 171 to 173 °C |
| C[C@@H](NS(=O)(=O)c1cnc(-c2c(C#N)c3ccc(OC(F)F)cc3n2C2CCC2)nc1)C(F)(F)F [compound 184, 2-[3-cyano-1-cyclobutyl-6-(difluoromethoxy)-1H-indol-2-yl]-N-[(2R)-1,1,1-trifluoropropan-2-yl]pyrimidine-5-sulfonamide] | > 6.30 | 112 to 114 °C |
| Cc1cc2c(cc1F)c(C#N)c(-c1ccc(S(=O)(=O)N[C@@H](C)C(F)(F)F)cn1)n2-c1cc(F)cc(F)n1 [compound 1001, 6-[3-cyano-1-(4,6-difluoropyridin-2-yl)-5-fluoro-6-methyl-1H-indol-2-yl]-N-[(2S)-1,1,1-trifluoropropan-2-yl]pyridine-3-sulfonamide] | > 6.30 | 190.2 to 196.8 °C |
| Cc1cc2c(cc1F)c(C#N)c(-c1ccc(S(=O)(=O)NC(C)(C)C)cn1)n2C1CCCCC1 [compound 710, N-tert-butyl-6-(3-cyano-1-cyclohexyl-5-fluoro-6-methyl-1H-indol-2-yl)pyridine-3-sulfonamide] | > 6.30 | 244 to 245 °C |
| Cc1cnc(-n2c(-c3ccc(S(=O)(=O)N[C@@H](C)C(F)(F)F)cn3)c(C#N)c3cc(F)c(C)cc32)nc1 [compound 925, 6-[3-cyano-5-fluoro-6-methyl-1-(5-methylpyrimidin-2-yl)-1H-indol-2-yl]-N-[(2S)-1,1,1-trifluoropropan-2-yl]pyridine-3-sulfonamide] | > 6.30 | 179 to 184 °C |
| Cc1cc2c(C#N)c(-c3ccc(S(=O)(=O)N[C@@H](C)C(F)(F)F)cn3)n(-c3ncc(F)cn3)c2cc1F [compound 949, 6-[3-cyano-6-fluoro-1-(5-fluoropyrimidin-2-yl)-5-methyl-1H-indol-2-yl]-N-[(2S)-1,1,1-trifluoropropan-2-yl]pyridine-3-sulfonamide] | > 6.30 | 226 to 231 °C |
| C[C@H](NS(=O)(=O)c1ccc(-c2c(C(N)=O)c3cc(F)c(Cl)cc3n2C2CCC2)nc1)C(F)(F)F [compound 736, 6-chloro-1-cyclobutyl-5-fluoro-2-(5-{[(2S)-1,1,1-trifluoropropan-2-yl]sulfamoyl}pyridin-2-yl)-1H-indole-3-carboxamide] | > 6.30 | 241 to 243 °C |
| CCc1cc2c(cc1F)c(C#N)c(-c1ccc(S(=O)(=O)N[C@@H](C)C(F)(F)F)cn1)n2-c1cccnc1 [compound 954, 6-[3-cyano-6-ethyl-5-fluoro-1-(pyridin-3-yl)-1H-indol-2-yl]-N-[(2S)-1,1,1-trifluoropropan-2-yl]pyridine-3-sulfonamide] | > 6.30 | 205 to 212 °C |
| N#Cc1c(-c2ncc(S(=O)(=O)NC(CF)CF)cn2)n(C2CCC2)c2ccc(F)cc12 [compound 452, 2-(3-cyano-1-cyclobutyl-5-fluoro-1H-indol-2-yl)-N-(1,3-difluoropropan-2-yl)pyrimidine-5-sulfonamide] | > 6.30 | 175 to 180 °C |
| Cc1nc(NS(=O)(=O)C(C)(C)C)ccc1-c1c(C(N)=O)c2cc(F)c(OC(F)F)cc2n1C(C)C [compound 1095, 2-{6-[(tert-butylsulfonyl)amino]-2-methylpyridin-3-yl}-6-(difluoromethoxy)-5-fluoro-1-(propan-2-yl)-1H-indole-3-carboxamide] | 5.70 to 6.30 | 234 to 235 °C |
| CC(C)(NS(=O)(=O)c1ccc(-c2c(C(N)=O)c3cc(F)c(C4CC4)cc3n2C2CCCC2)nc1)C(F)(F)F [compound 850, 1-cyclopentyl-6-cyclopropyl-5-fluoro-2-{5-[(1,1,1-trifluoro-2-methylpropan-2-yl)sulfamoyl]pyridin-2-yl}-1H-indole-3-carboxamide] | > 6.30 | 236 to 237 °C |
| COc1ccc2c(C#N)c(-c3ccc(S(=O)(=O)N[C@@H](C)C4CC4)cn3)n(C3CCCC3)c2c1 [compound 432, 6-(3-cyano-1-cyclopentyl-6-methoxy-1H-indol-2-yl)-N-[(1S)-1-cyclopropylethyl]pyridine-3-sulfonamide] | > 6.30 | 199 to 209 °C |
| Cc1ccc2c(C#N)c(-c3ccc(S(=O)(=O)N[C@H](C)C(F)(F)F)cn3)n(-c3ncccn3)c2c1 [compound 688, 6-[3-cyano-6-methyl-1-(pyrimidin-2-yl)-1H-indol-2-yl]-N-[(2R)-1,1,1-trifluoropropan-2-yl]pyridine-3-sulfonamide] | > 6.30 | 196 to 198 °C |
| C[C@H](NS(=O)(=O)c1cnc(-c2c(C#N)c3cc(C(F)F)ccc3n2C2CCC2)nc1)C(F)(F)F [compound 380, 2-[3-cyano-1-cyclobutyl-5-(difluoromethyl)-1H-indol-2-yl]-N-[(2S)-1,1,1-trifluoropropan-2-yl]pyrimidine-5-sulfonamide] | > 6.30 | 186 to 188 °C |
| CC[C@H](NS(=O)(=O)c1ccc(-c2c(C#N)c3cc(F)c(C)cc3n2C2CCCC2)nc1)C(F)(F)F [compound 821, 6-(3-cyano-1-cyclopentyl-5-fluoro-6-methyl-1H-indol-2-yl)-N-[(2S)-1,1,1-trifluorobutan-2-yl]pyridine-3-sulfonamide] | > 6.30 | 201 to 207 °C |
| N#Cc1c(-c2ccc(S(=O)(=O)NC(CF)CF)cn2)n(C2CCC2)c2ccc(F)cc12 [compound 29, 6-(3-cyano-1-cyclobutyl-5-fluoro-1H-indol-2-yl)-N-(1,3-difluoropropan-2-yl)pyridine-3-sulfonamide] | > 6.30 | 206 to 208 °C |
| COc1ccc2c(C#N)c(-c3ncc(S(=O)(=O)NC(CF)CF)cn3)n(C3CCC3)c2c1 [compound 230, 2-(3-cyano-1-cyclobutyl-6-methoxy-1H-indol-2-yl)-N-(1,3-difluoropropan-2-yl)pyrimidine-5-sulfonamide] | > 6.30 | 217 to 219 °C |
| CC(C)n1c(-c2ccc(S(=O)(=O)NC(CF)CF)cn2)c(C#N)c2ccc(OC(F)F)cc21 [compound 36, 6-[3-cyano-6-(difluoromethoxy)-1-(propan-2-yl)-1H-indol-2-yl]-N-(1,3-difluoropropan-2-yl)pyridine-3-sulfonamide] | > 6.30 | 142 to 145 °C |
